Patent EP3436445B1, “HISTONE DEMETHYLASE INHIBITORS” (Celgene Quanticel Research, Inc., priority 2016, dated 2017)

molecular target: T1, JMJD2C (Homo sapiens, UniProt Q9H3R0); test: JMJD2C in vitro enzyme inhibition assay (TR-FRET); type: biochemical; settings: Table 5; 0.3 nM JMJD2C, H3K9me3-biotin labeled peptide
T1 construct: purchased BPS Bioscience 50105
T1 sequence (Q9H3R0 2-372): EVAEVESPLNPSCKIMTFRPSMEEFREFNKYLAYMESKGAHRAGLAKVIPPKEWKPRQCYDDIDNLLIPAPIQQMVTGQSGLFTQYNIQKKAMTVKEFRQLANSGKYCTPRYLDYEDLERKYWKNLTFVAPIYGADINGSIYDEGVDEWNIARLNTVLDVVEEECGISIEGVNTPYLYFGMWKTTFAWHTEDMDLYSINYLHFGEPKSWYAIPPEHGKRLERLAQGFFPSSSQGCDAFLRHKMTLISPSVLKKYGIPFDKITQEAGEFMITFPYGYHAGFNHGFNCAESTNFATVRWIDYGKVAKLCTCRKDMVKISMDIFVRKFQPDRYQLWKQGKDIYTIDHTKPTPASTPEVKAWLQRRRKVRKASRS
Description: This assay determines the ability of a test compound to inhibit Jarid1B, JMJD2C and JMJD3 demethylase activity. Baculovirus expressed Jarid1B (GenBank Accession #NM-006618, AA 2-751) was purchased from BPS Bioscience (Cat #50121) or custom made by MolecularThroughput. Baculovirus expressed JMJD2C (GenBank Accession #BC143571, AA 2-372) was purchased from BPS Bioscience (Cat#50105). Baculovirus expressed JMJD3 (GenBank Accession #NM-001080424, AA1043-end) was purchased from BPS Bioscience (Cat#50115).
The ability of test compounds to inhibit the activity of JMJD2C was determined in 384-well plate format under the following reaction conditions: 0.3 nM JMJD2C, 300 nM H3K9me3-biotin labeled peptide (Anaspec cat #64360), 2 µM alpha-ketoglutaric acid in assay buffer of 50 mM HEPES, pH7.3, 0.005% Brij35, 0.5 mM TCEP, 0.2 mg/ml BSA, 50 µM sodium L-ascorbate, and 2 µM ammonium iron(II) sulfate. Reaction product was determined quantitatively by TR-FRET after the addition of detection reagent Phycolink Streptavidin-allophycocyanin (Prozyme) and Europium-anti-di-methylated histone H3 lysine 9 (H3K9me2) antibody (PerkinElmer) in the presence of 5 mM EDTA in LANCE detection buffer (PerkinElmer) at a final concentration of 50 nM and 1 nM, respectively.
The assay reaction was initiated by the following: 2 µl of the mixture of 900 nM H3K9me3-biotin labeled peptide and 6 µM alpha-ketoglutaric acid with 2 µl of 11-point serial diluted inhibitor in 3% DMSO were added to each well of the plate, followed by the addition of 2 µl of 0.9 nM JMJD2C to initiate the reaction. The reaction mixture was incubated at room temperature for 30 minutes, and terminated by the addition of 6 µl of 5 mM EDTA in LANCE detection buffer containing 100 nM Phycolink Streptavidin-allophycocyanin and 2 nM Europium-anti-H3K9me2 antibody. Plates were read by EnVisionMultilabel Reader in TR-FRET mode (excitation at 320 nm, emission at 615 nm and 665 nm) after 1 hour incubation at room temperature. A ratio was calculated (665/615) for each well and fitted to determine inhibition constant (IC50).

IC50 | SMILES
> 10 µM | O=C(c1ccccc1)N1CCC[C@@H](n2cnc(-c3cc(-c4nn[nH]c4C(F)(F)F)ccn3)c2)C1 [Example 89, 2-{1-[(3R)-1-benzoylpiperidin-3-yl]-1H-imidazol-4-yl}-4-[5-(trifluoromethyl)-1H-1,2,3-triazol-4-yl]pyridine]
> 10 µM | Cc1ccc(Cn2cnc(-c3cc(-c4nn[nH]c4C(F)(F)F)ccn3)c2)c(F)c1 [Example 71, 2-{1-[(2-fluoro-4-methylphenyl)methyl]-1H-imidazol-4-yl}-4-[5-(trifluoromethyl)-1H-1,2,3-triazol-4-yl]pyridine]
> 10 µM | FC(F)(F)c1[nH]nnc1-c1ccnc(-c2cn(Cc3ccccc3Cl)cn2)c1 [Example 64, 2-{1-[(2-chlorophenyl)methyl]-1H-imidazol-4-yl}-4-[5-(trifluoromethyl)-1H-1,2,3-triazol-4-yl]pyridine]
> 10 µM | Fc1ccc(Cn2cnc(-c3cc(-c4nn[nH]c4C(F)(F)F)ccn3)c2)cc1 [Example 61, 2-{1-[(4-fluorophenyl)methyl]-1H-imidazol-4-yl}-4-[5-(trifluoromethyl)-1H-1,2,3-triazol-4-yl]pyridine]
> 10 µM | FC(F)(F)c1ccc(CCn2cnc(-c3cc(-c4nn[nH]c4C(F)(F)F)ccn3)c2)cc1 [Example 94, 4-[5-(trifluoromethyl)-1H-1,2,3-triazol-4-yl]-2-(1-{2-[4-(trifluoromethyl)phenyl]ethyl}-1H-imidazol-4-yl)pyridine]
1 to 10 µM | FC(F)(F)c1[nH]nnc1-c1ccnc(-c2cn(CC3CCc4ccccc43)cn2)c1 (stereo not shown) [Example 83, 2-{1-[(2,3-dihydro-1H-inden-1-yl)methyl]-1H-imidazol-4-yl}-4-[5-(trifluoromethyl)-1H-1,2,3-triazol-4-yl]pyridine]
> 10 µM | COc1cccc2c1CCCC2Cn1cnc(-c2cc(-c3nn[nH]c3C(F)(F)F)ccn2)c1 (stereo not shown) [Example 104, 2-{1-[(5-methoxy-1,2,3,4-tetrahydronaphthalen-1-yl)methyl]-1H-imidazol-4-yl}-4-[5-(trifluoromethyl)-1H-1,2,3-triazol-4-yl]pyridine]
> 10 µM | CC(C)(C)c1ccc(CCn2cnc(-c3cc(-c4nn[nH]c4C(F)(F)F)ccn3)c2)cc1 [Example 96, 2-{1-[2-(4-tert-butylphenyl)ethyl]-1H-imidazol-4-yl}-4-[5-(trifluoromethyl)-1H-1,2,3-triazol-4-yl]pyridine]
> 10 µM | CC(c1ccccc1)n1cnc(-c2cc(-c3nn[nH]c3C(F)(F)F)ccn2)c1 (stereo not shown) [Example 73, 2-[1-(1-phenylethyl)-1H-imidazol-4-yl]-4-[5-(trifluoromethyl)-1H-1,2,3-triazol-4-yl]pyridine]
> 10 µM | Fc1ccc(CCn2cnc(-c3cc(-c4nn[nH]c4C(F)(F)F)ccn3)c2)c(F)c1 [Example 86, 2-{1-[2-(2,4-difluorophenyl)ethyl]-1H-imidazol-4-yl}-4-[5-(trifluoromethyl)-1H-1,2,3-triazol-4-yl]pyridine]
> 10 µM | COc1cccc2c1C(Cn1cnc(-c3cc(-c4nn[nH]c4C(F)(F)F)ccn3)c1)CCC2 (stereo not shown) [Example 107, 2-{1-[(8-methoxy-1,2,3,4-tetrahydronaphthalen-1-yl)methyl]-1H-imidazol-4-yl}-4-[5-(trifluoromethyl)-1H-1,2,3-triazol-4-yl]pyridine]
> 10 µM | CCc1ccc(CCn2cnc(-c3cc(-c4nn[nH]c4C(F)(F)F)ccn3)c2)cc1 [Example 95, 2-{1-[2-(4-ethylphenyl)ethyl]-1H-imidazol-4-yl}-4-[5-(trifluoromethyl)-1H-1,2,3-triazol-4-yl]pyridine]
> 10 µM | Fc1cccc(F)c1Cn1cnc(-c2cc(-c3nn[nH]c3C(F)(F)F)ccn2)c1 [Example 69, 2-{1-[(2,6-difluorophenyl)methyl]-1H-imidazol-4-yl}-4-[5-(trifluoromethyl)-1H-1,2,3-triazol-4-yl]pyridine]
> 10 µM | Fc1cccc(CCn2cnc(-c3cc(-c4nn[nH]c4C(F)(F)F)ccn3)c2)c1 [Example 78, 2-{1-[2-(3-fluorophenyl)ethyl]-1H-imidazol-4-yl}-4-[5-(trifluoromethyl)-1H-1,2,3-triazol-4-yl]pyridine]
> 10 µM | COc1ccc(CCn2cnc(-c3cc(-c4nn[nH]c4C(F)(F)F)ccn3)c2)cc1 [Example 93, 2-{1-[2-(4-methoxyphenyl)ethyl]-1H-imidazol-4-yl}-4-[5-(trifluoromethyl)-1H-1,2,3-triazol-4-yl]pyridine]
> 10 µM | Fc1ccc2c(c1)C(Cn1cnc(-c3cc(-c4nn[nH]c4C(F)(F)F)ccn3)c1)CCC2 (stereo not shown) [Example 101, 2-{1-[(7-fluoro-1,2,3,4-tetrahydronaphthalen-1-yl)methyl]-1H-imidazol-4-yl}-4-[5-(trifluoromethyl)-1H-1,2,3-triazol-4-yl]pyridine]
> 10 µM | Fc1cccc2c1CCCC2Cn1cnc(-c2cc(-c3nn[nH]c3C(F)(F)F)ccn2)c1 (stereo not shown) [Example 99, 2-{1-[(5-fluoro-1,2,3,4-tetrahydronaphthalen-1-yl)methyl]-1H-imidazol-4-yl}-4-[5-(trifluoromethyl)-1H-1,2,3-triazol-4-yl]pyridine]
> 10 µM | Fc1ccccc1CCn1cnc(-c2cc(-c3nn[nH]c3C(F)(F)F)ccn2)c1 [Example 84, 2-{1-[2-(2-fluorophenyl)ethyl]-1H-imidazol-4-yl}-4-[5-(trifluoromethyl)-1H-1,2,3-triazol-4-yl]pyridine]
> 10 µM | Cc1ccc(CCn2cnc(-c3cc(-c4nn[nH]c4C(F)(F)F)ccn3)c2)cc1 [Example 91, 2-{1-[2-(4-methylphenyl)ethyl]-1H-imidazol-4-yl}-4-[5-(trifluoromethyl)-1H-1,2,3-triazol-4-yl]pyridine]
> 10 µM | Cc1ccc2c(c1)C(Cn1cnc(-c3cc(-c4nn[nH]c4C(F)(F)F)ccn3)c1)CCC2 (stereo not shown) [Example 103, 2-{1-[(7-methyl-1,2,3,4-tetrahydronaphthalen-1-yl)methyl]-1H-imidazol-4-yl}-4-[5-(trifluoromethyl)-1H-1,2,3-triazol-4-yl]pyridine]
> 10 µM | O=C(c1ccccc1)N1CCC[C@H](n2cnc(-c3cc(-c4nn[nH]c4C(F)(F)F)ccn3)c2)C1 [Example 90, 2-{1-[(3S)-1-benzoylpiperidin-3-yl]-1H-imidazol-4-yl}-4-[5-(trifluoromethyl)-1H-1,2,3-triazol-4-yl]pyridine]
1 to 10 µM | FC(F)(F)c1ccccc1CCn1cnc(-c2cc(-c3nn[nH]c3C(F)(F)F)ccn2)c1 [Example 60, 4-[5-(trifluoromethyl)-1H-1,2,3-triazol-4-yl]-2-(1-{2-[2-(trifluoromethyl)phenyl]ethyl}-1H-imidazol-4-yl)pyridine]
> 10 µM | Cc1cc(F)ccc1Cn1cnc(-c2cc(-c3nn[nH]c3C(F)(F)F)ccn2)c1 [Example 70, 2-{1-[(4-fluoro-2-methylphenyl)methyl]-1H-imidazol-4-yl}-4-[5-(trifluoromethyl)-1H-1,2,3-triazol-4-yl]pyridine]
> 10 µM | Fc1ccc(F)c(CCn2cnc(-c3cc(-c4nn[nH]c4C(F)(F)F)ccn3)c2)c1 [Example 88, 2-{1-[2-(2,5-difluorophenyl)ethyl]-1H-imidazol-4-yl}-4-[5-(trifluoromethyl)-1H-1,2,3-triazol-4-yl]pyridine]

SMILES | IC50
Fc1ccccc1Cn1cnc(-c2cc(-c3nn[nH]c3C(F)(F)F)ccn2)c1 [Example 62, 2-{1-[(2-fluoroprtenyl)methyl]-1H-imidazol-4-yl}-4-[5-(trifluoromethyl)-1H-1,2,3-triazol-4-yl]pyridine] | > 10 µM
